Laboratory results published in the supplement of paper PMC10949913.

Assays:
Assay in all cases: area under concentration-response curve (viability) (AUC (a.u.)); higher = less active
Conditions in all cases: 48 h
NCI-H295R = tested on: NCI-H295R
Method in brief: (§1)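 Three adrenocortical carcinoma cell lines were exposed for 48 h to library compounds at 11 concentrations in 1,536-well plates, then read by CellTiter-Glo luminescence. Signals were scaled per plate against vehicle and empty-well controls. From fitted concentration-response curves of inhibitory or non-responding classes alone, AC50 and area under the curve were obtained.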

CU-ACC2 = tested on: CU-ACC2
Method in brief: as §1

CU-ACC1 = tested on: CU-ACC1
Method in brief: as §1

| Structure (SMILES) | area under concentration-response curve (NCI-H295R) | area under concentration-response curve (CU-ACC2) | area under concentration-response curve (CU-ACC1) |
| --- | --- | --- | --- |
| CCOc1cc(/C=C2/C(=O)N(c3ccccc3)N=C2C)cc(Cl)c1OCC(=O)OC | 590 | 664 | 587 |
| C[C@@H](N)[C@H]1CC[C@H](C(=O)Nc2ccncc2)CC1 | 448 | 487 | 472 |
| CO[C@H]1/C=C/O[C@@]2(C)Oc3c(C)c(O)c4c(O)c(c5c(nc6cc(C)ccn65)c4c3C2=O)NC(=O)/C(C)=C\C=C\[C@H](C)[C@H](O)[C@@H](C)[C@@H](O)[C@@H](C)[C@H](OC(C)=O)[C@@H]1C | 529 | 557 | 475 |
| CC(C)(Sc1ccc(CCN(CCCCC2CCCCC2)C(=O)NC2CCCCC2)cc1)C(=O)O | 501 | 585 | 506 |
| Cc1nnc(N[S+](=O)([O-])c2ccc(N)cc2)s1 | 546 | 591 | 496 |
| CC(C)NCC(O)c1ccc(N[S+](C)(=O)[O-])cc1 (stereo unspecified) | 570 | 624 | 530 |
| CC(=O)NC[C@H]1CN(c2ccc(N3CCOCC3)c(F)c2)C(=O)O1 | 612 | 700 | 565 |
| CCNC(=O)C[C@H]1/N=C(/C2=CC=C(Cl)C=C2)C3=CC(=CC=C3[N]4C(=NN=C14)C)OC | 455 | 452 | 362 |
| CCCC\1=C(/CNC(=O)C2=CC(=CC3=C2C=N[N]3C(C)C)C4=CC=C(N=C4)N5CCN(CC5)C(C)C)C(=O)NC(=C1)\C | 472 | 485 | 379 |
| c1cc(-c2sc(-c3ccncc3)c(-c3ccncc3)c2-c2ccncc2)ccn1 | 565 | 544 | 549 |
| CCN(CCCOc1ccc2c(Nc3cc(CC(=O)Nc4cccc(F)c4)[nH]n3)ncnc2c1)CCOP(=O)(O)O | 495 | 579 | 471 |
| NC(=O)NO | 511 | 590 | 503 |
| Nc1nc(OCc2ccccc2)c2nc[nH]c2n1 | 441 | 479 | 432 |
| C#CCN(C)[C@H](C)Cc1ccccc1 | 434 | 457 | 467 |
| CCC1(C)CC(=O)NC1=O (stereo unspecified) | 551 | 603 | 497 |
| Nc1nc(N)c2nc(CNc3ccc(C(=O)NC(CCC(=O)O)C(=O)O)cc3)cnc2n1 (stereo unspecified) | 515 | 543 | 458 |
| C[C@@H]1CCN(C(=O)N2CCCC2)C[C@@H]1N(C)c1ncnc2[nH]ccc12 | 505 | 562 | 477 |
